The text below walks through data of patent publication US20170202802A1, “COMPOSITIONS, KITS AND METHODS FOR NUTRITION SUPPLEMENTATION” (Exeltis USA, Inc., priority 2016, published 2017).

The test can be described thus: Double-blind, placebo controlled six-month study of nutritional status in pregnant and lactating women (Example 6). Conditions: co-administration of docusate sodium with supplements. It is filed as in vivo, human. The procedure: A study is undertaken to evaluate the effectiveness of the compositions of the present invention in the treatment of patients. The objective of the study is to determine whether oral intake of the compositions results in an improvement of the nutritional status of patients with regard to the specific vitamins and minerals contained in the administered compositions.
A double-blind, placebo controlled study is conducted over a six-month period. A total of 120 subjects (60 pregnant women entering the second trimester of pregnancy and 60 lactating women), aged 20-35 years, are chosen for the study. An initial assessment of the nutritional status of each woman is conducted. Vitamin A and vitamin B6 are measured using high performance liquid chromatography. […] Vitamin B2 levels are determined by assessment of erythrocyte glutathione reductase activity. Vitamin B3 levels are assessed by measuring urinary excretion of N′-methylnicotinamide and its pyridone. Vitamin B9 is measured by radioimmunoassay (RIA), specifically. […] Vitamin B12 is measured by RIA using human intrinsic factor as a binder and also by measuring serum levels of vitamin B12. Vitamin C levels are measured by spectrophotometric and colorimetric methods and also by measuring serum levels of Vitamin C. Vitamin D is measured using an extraction double-antibody RIA (Dia Sorin, Inc., Stillwater, Minn.). […] Iodine levels are measured by HPLC. […]

Take `CCCCC(CC)COC(=O)CC(C(=O)OCC(CC)CCCC)S(=O)(=O)[O-].[Na+]` (stereo not shown) [docusate sodium]: the “constipation that can result from iron supplementation (frequency of normal bowel movements before and after receiving supplements)” value is reported as “mitigates constipation”.
